What was measured:
[1] = tested on: STAM NASH model mice (liver fibrosis); assay: STAM NASH model mice, Sirius red-stained liver fibrosis area and tolerability; format: in vivo; settings: for Sirius red positive area (fibrosis area) of liver sections: PO 6-9 wks of age, compound 3.1 15 mg/kg BID, Telmisartan 10 mg/kg QD, mean±SD, p<0.01 vs vehicle
Excerpt: The STAM model (developed and standardized by SMC Laboratories, Japan https://www.smccro-lab.com/) is a model that recapitulates the same disease progression as human nonalcoholic steatohepatitis (NASH) and hepatocellular carcinoma (HCC): in 25% of affected patients (i.e. 20%-25% of the adult population), nonalcoholic fatty liver disease progresses to NASH, which increases the risk for the development of cirrhosis, liver failure, and hepatocellular carcinoma. In patients with NASH, liver fibrosis is the main determinant of mortality (https://doi.org/10.1053/j.gastro.2019.11.311). In this model, male C57BL/6 mice aged two days are given a single dose of streptozotocin to reduce insulin secretory capacity. When the mice turn four weeks of age they start a high-fat diet feeding. This model has a background of late type 2 diabetes which progresses into fatty liver, NASH, fibrosis and consequently liver cancer (HCC). Compared to other NASH-HCC model mice, the disease progresses in a relatively short period of time, and liver cancer is developed in 100% of animals at 20 weeks of age.
C57BL/6JJmsSlc mice (14-day-pregnant female) were obtained from Japan SLC, Inc. (Japan). Two days after birth, NASH is induced in male mice by a single subcutaneous injection of 200 μg streptozotocin (STZ, Sigma-Aldrich, USA) solution and feeding with high fat diet (HFD, 57 kcal % fat, Cat #HFD32, CLEA Japan, Inc., Japan) after 4 weeks of age. Sterilized solid HFD is provided ad libitum, and replaced once every 2 days according to the manufacturer's instructions. Then, NASH model mice are divided into 3 randomized groups of 10 mice at 6 weeks of age based on their body weight the day before the start of treatment. The randomization was performed by body weight-stratified random sampling using Excel software. NASH model mice were stratified by their body weight to get SD and the difference in the mean weights among groups as small as possible.
Group 1: Vehicle (10 NASH mice orally administered with Placebo nanosuspension in a volume of 10 mL/kg twice daily from 6 to 9 weeks of age).
Group 2: Compound 3.1 (PST3.1) ((10 NASH mice orally administered with compound 3.1 nanosuspension at a dose of 15 mg/kg in a volume of 10 mL/kg twice daily (2*15 mg/kg/day) from 6 to 9 weeks of age).
Group 3: Telmisartan (10 NASH mice will be orally administered vehicle supplemented with Telmisartan at a dose of 10 mg/kg once daily in a volume of 10 mL/kg from 6 to 9 weeks of age). Vehicle and compound 3.1 were provided by Phost'in Therapeutics SAS. Telmisartan (Micardis®) was purchased from Boehringer Ingelheim GmbH (Germany).
After 3 weeks of treatment mice were sacrificed, whole liver were collected and washed with cold saline. Individual whole liver (parietal side and visceral side) was taken photos. Liver weight were measured and liver-to-body weight ratio were calculated. The left lateral lobes of livers will be separated and dissected as described in FIG. 6, and stored as described below: • a: Liver specimens were stored at −80° C. embedded in Optimal Cutting Temperature (O.C.T., Sakura Finetek Japan, Japan) compound. • b: Liver specimens were fixed in Bouin's solution (Sigma-Aldrich, Japan) for 24 hours. After fixation, these specimens were proceeded to paraffin embedding for Sirius red-staining. • c: Liver specimens were snap frozen in liquid nitrogen and stored at −80° C.
Sections were cut from paraffin blocks of liver tissue using the rotary microtome (Leica Microsystems). […]

NIH3T3 fibroblasts = assay: Wound healing (scratch) inhibition test in presence of TGFβ; format: cell-based; settings: 1 μM tested compound, 24 h, in presence of TGFβ 5 ng/ml
Description: NIH3T3 fibroblasts were seeded at 40 000 cells per cm2 in a 24 well plate, DMEM+10% FBS.
Before wound/treatment, cells were washed twice in DMEM without serum then incubated in the appropriate condition DMEM+2.5% FBS, TGFβ+/−, PST3.1+/−.
TGFβ 5 ng/ml; PST3.1 1 μM, n=6 wells per treatment.
At t0, cell layer is scratched using a needle and observed under microscope to take 3 pictures per well using a scale measure referential to measure width of the scratch using imageJ software.
After 24 h of incubation in the desired condition, scratch is measured under microscope by taking 3 pictures at the same scale using the same referential.
Data are treated by calculating percentage of closing.

[2] = tested on: SNx rats (renal fibrosis); assay: Kidney fibrosis model: 5/6 subtotal nephrectomy (SNx) rats, histological and immunohistochemical staining of kidney sections; format: in vivo, Sprague-Dawley rats
Excerpt: Male Sprague-Dawley rats underwent ⅚ subtotal nephrectomy (SNx) and were used as the kidney fibrosis model, since SNx rats developed tubulointerstitial fibrosis. During this surgery, the right kidney is removed and 2 of the 3 branches of the left renal artery are ligated in order to necrose ⅔ of the kidney. The control kidney is right kidney before nephrectomy. Tubulointerstitial renal fibrosis inevitably leads to renal function deterioration and failure, independently of the primary renal disease. It is worth noting that in SNx rats, plasmatic creatinine concentration increases from 25.7±1.3 μM to 120.0±33.0 μM. Sirius red staining highlights fibrosis by staining collagens in paraffin-embedded kidney tissue sections. Five micrometer-thick sections were cut and mounted on glass slides. Slides were deparaffinized and stained with Sirius red for evaluation of collagen localization. […] The sections were mounted in Entelan mounting medium and examined under microscope. For each sample, quantification was performed with Image J software on pictures taken from 10 fields of kidney sections at 200-fold magnification. The staining area was measured on kidney section fields. Immunohistochemical analyses of kidney sections were also performed using paraffin sections. The primary antibody, anti-Mgat5 was incubated overnight at 4° C. Revelation was performed with Universal vectastain ABC kit and ImmPACT AE following the instructions of suppliers, Vector Laboratories. Then, the sections were mounted in an aqueous mounting medium, VectaMount™ AQ and examined under microscope (Nikon Eclipse TE300). Quantification was carried out as for histological staining.
Compound 3.1 was orally administered to control rats and SNx rats (as above described) at 20 mg/kg daily per 28 days. A control was carried out with a vehicle (without compound 3.1) administered in the same manner as compound 3.1. Sprague Dawley rats will be used. The rats will be fed ad libitum and will be placed in a 12 hour light, 12 hour dark cycle. They will be divided 3 per cage. Some rats undergo ⅚ subtotal nephrectomy (SNx) to develop chronic kidney failure which will lead to the development of renal fibrosis. The 3.1a treatment was administered to the rats on the day of nephrectomy and continued for the entire protocol. It is delivered as a nanosuspension diluted in drinking water. Control rats receive the solvent alone (placebo). Histological and immunohistochemical methods were monitored as described in example 1.

MGAT5 activity = assay: L-PHA lectin staining of kidney sections as glycans marker of MGAT5 activity in SNx rats; format: in vivo, Sprague-Dawley rats; settings: treated SNx rats, 20 mg/kg daily oral, 4 weeks
Excerpt: Male Sprague-Dawley rats underwent ⅚ subtotal nephrectomy (SNx) and were used as the kidney fibrosis model, since SNx rats developed tubulointerstitial fibrosis. During this surgery, the right kidney is removed and 2 of the 3 branches of the left renal artery are ligated in order to necrose ⅔ of the kidney. The control kidney is right kidney before nephrectomy. Tubulointerstitial renal fibrosis inevitably leads to renal function deterioration and failure, independently of the primary renal disease. It is worth noting that in SNx rats, plasmatic creatinine concentration increases from 25.7±1.3 μM to 120.0±33.0 μM. Sirius red staining highlights fibrosis by staining collagens in paraffin-embedded kidney tissue sections. Five micrometer-thick sections were cut and mounted on glass slides. […] For each sample, quantification was performed with Image J software on pictures taken from 10 fields of kidney sections at 200-fold magnification. The staining area was measured on kidney section fields. […] Quantification was carried out as for histological staining.
Compound 3.1 was orally administered to control rats and SNx rats (as above described) at 20 mg/kg daily per 28 days. […] Histological and immunohistochemical methods were monitored as described in example 1.
Glycosylation resulting from MGAT5 activity will be specifically measured by L-PHA lectin staining. […]

[3] = 15 mg/kg PO BID, 3 weeks of treatment

SMILES: CCCc1nc2c(C)cc(-c3nc4ccccc4n3C)cc2n1Cc1ccc(-c2ccccc2C(=O)O)cc1 [Telmisartan, reference compound]
- Sirius red positive area (fibrosis area) of liver sections [1]: 0.50±0.24%

SMILES: O=[P@@]1(c2ccc(Oc3ccccc3)cc2)O[C@H](COCc2ccccc2)[C@@H](OCc2ccccc2)[C@H](OCc2ccccc2)[C@H]1O [Compound 3.0, (2S,3S,4S,5S,6R)-4,5-bis(benzyloxy)-6-((benzyloxy)methyl)-3-hydroxy-2-(4-phenoxyphenyl)-1,2-oxaphosphinane 2-oxide]
- % inhibition of wound healing (NIH3T3 fibroblasts): 23.0%

SMILES: CC1(C)OC[C@H](C2O[P@@](=O)(c3ccccc3)[C@H](NCc3ccccc3)[C@H]3OC(C)(C)O[C@@H]23)O1 (stereo partly drawn) [Compound 3.3, (3aR,6S,7S,7aS)-7-(benzylamino)-4-((R)-2,2-dimethyl-1,3-dioxolan-4-yl)-2,2-dimethyl-6-phenyltetrahydro-[1,3]dioxolo[4,5-d][1,2]oxaphosphinine 6-oxide]
- % inhibition of wound healing (NIH3T3 fibroblasts): 29.8%

SMILES: O=[P@@]1(c2ccccc2)O[C@H](COCc2ccccc2)[C@@H](OCc2ccccc2)[C@H](OCc2ccccc2)C1O (stereo partly shown) [Compound 3.1, 3-Hydroxy-4,5-bis-benzyloxy-6-benzyloxymethyl-2-phenyl-2-oxo-2λ5-[1,2]oxaphosphinane]
- fibrosis, Sirius red staining area of kidney sections ([2]; SNx rats treated, 20 mg/kg daily oral, 4 weeks): 5.8±1.2%
- plasma/serum creatinine concentration ([2]; SNx treated rats vs SNx rats on placebo, 20 mg/kg daily oral, at 4 weeks): lower serum creatinine
- treatment effect on collagen III in controls ([2]; control (non-nephrectomized) rats, 20 mg/kg daily oral, 4 weeks): no treatment effect
- effect of treatment on fibrosis (Sirius red) ([2]; healthy animals or SNx, 4 weeks): no significant effect
- collagen I expression, kidney immunostaining ([2]; treated SNx rats, 20 mg/kg daily oral, 4 weeks, p=0.014 vs untreated SNx): 1.3±0.3%
- collagen IV expression, kidney immunostaining ([2]; treated SNx rats, 20 mg/kg daily oral, 4 weeks, p=0.015 vs untreated SNx): 6.4±0.3%
- collagen III level, kidney immunostaining ([2]; treated SNx rats, 20 mg/kg daily oral, 4 weeks, p=0.27 vs untreated SNx): 4.0±0.3%
- PHA-L staining of kidney sections (MGAT5 activity): 5.1±0.5%
- body weight loss [1, 3]: no body weight loss
- clinical signs [1, 3]: no clinical signs
- death [1, 3]: no death
- Sirius red positive area (fibrosis area) of liver sections [1]: 0.47±0.12%
- % inhibition of wound healing (NIH3T3 fibroblasts): 42.0%

SMILES: CC(=O)N[C@@H]1[C@@H](OCc2ccccc2)[C@H](OCc2ccccc2)[C@@H](COCc2ccccc2)O[P@@]1(=O)c1ccccc1 [Compound 2.2, N-((2S,3S,4S,5S,6R)-4,5-bis(benzyloxy)-6-((benzyloxy)methyl)-2-oxido-2-phenyl-1,2-oxaphosphinan-3-yl)acetamide]
- % inhibition of wound healing (NIH3T3 fibroblasts): 28.7%

SMILES: c1ccc(CN[C@@H]2[C@@H](OCc3ccccc3)[C@H](OCc3ccccc3)[C@@H](COCc3ccccc3)O[P@@]2c2ccccc2)cc1 [Compound 4.6, (2S,3S,4S,5S,6R)-3-(benzylamino)-4,5-bis(benzyloxy)-6-((benzyloxy)methyl)-2-phenyl-1,2-oxaphosphinane]
- % inhibition of wound healing (NIH3T3 fibroblasts): 29.3%

SMILES: CC1(C)OC[C@H](C2O[P@](=O)(c3ccccc3)[C@@H](OC(=O)c3ccccc3)[C@H]3OC(C)(C)O[C@@H]23)O1 (stereo partly drawn) [Compound 4.2, (3aR,6R,7R, 7aS)-4-((R)-2,2-dimethyl-1,3-dioxolan-4-yl)-2,2-dimethyl-6-oxido-6-phenyltetrahydro-[1,3]dioxolo[4,5-d][1,2]oxaphosphinin-7-yl benzoate]
- % inhibition of wound healing (NIH3T3 fibroblasts): 17.2%

Reference: US20240082271A1, “Methods of Treatment of Fibrotic Diseases” (PHOST’IN THERAPEUTICS, priority 2021, published 2024)
